Measured values published in ChEMBL document CHEMBL4354807, “Natural Product Albiziabioside A Conjugated with Pyruvate Dehydrogenase Kinase Inhibitor Dichloroacetate To Induce Apoptosis-Ferroptosis-M2-TAMs Polarization for Combined Cancer Therapy” (J Med Chem, 2019).
Active and inactive are the calls of the source. No cut-off for these calls is given here.

Experiments:
MCF7 [1] = test: Induction of ferroptosis in human MCF7 cells assessed as cell death at 2 uM pretreated with iron chelating agent deferoxamine followed by compound treatment by MTT assay; format: functional, cell-based
[2] = Selectivity index, ratio IC50 for cytotoxicity against human HBMEC cells assessed as reduction in cell viability after 72 hrs by MTT assay to IC50 for anticancer activity against mouse 4T1 cells assessed as reduction in cell viability after 72 hrs by MTT assay
4T1 [3] = test: Induction of M2-TAM polarization in mouse 4T1 cells assessed as decrease in Arg1 mRNA expression at 2 uM after 48 hrs by Western blot analysis relative to control; format: functional
[4] = Toxicity in BALB/c nude mouse xenografted with human MCF7 cells assessed as effect on liver at 2 mg/kg, iv administered every 2 days for 2 weeks measured after 14 days by hematoxylin and eosin staining based histopathological analysis; format: organism-based; details: in vivo, 336 h
Mus musculus [5] = test: Modulation of tumor immunosuppressive activity in BALB/c mouse xenografted with mouse 4T1 cells assessed as increase in TNFalpha expression in tumor administered intratumorally every other day for 14 days measured at 2 days post-last dose by ELISA; format: functional, organism-based
Mus musculus [6] = test: Modulation of tumor immunosuppressive activity in BALB/c mouse xenografted with mouse 4T1 cells assessed as increase in TNFalpha expression in serum administered intratumorally every other day for 14 days measured at 2 days post-last dose by ELISA; format: functional, organism-based
[7] = Toxicity in BALB/c nude mouse xenografted with human MCF7 cells assessed as effect on heart at 2 mg/kg, iv administered every 2 days for 2 weeks measured after 14 days by hematoxylin and eosin staining based histopathological analysis; format: organism-based; details: in vivo, 336 h
MCF7 [8] = test: Induction of mitochondrial dysfunction in human MCF7 cells assessed as cell population with mitochondrial membrane potential collapse at 2 uM after 24 hrs by JC1 staining-based FACScalibur flow cytometry analysis (reference value: 2.74 %); format: functional
[9] = Toxicity in BALB/c nude mouse xenografted with human MCF7 cells assessed as effect on kidney at 2 mg/kg, iv administered every 2 days for 2 weeks measured after 14 days by hematoxylin and eosin staining based histopathological analysis; format: organism-based; details: in vivo, 336 h
4T1 [10] = test: Inhibition of glycolysis in mouse 4T1 cells expressing PDK assessed as reduction in intracellular lactate level at 2 uM after 6 hrs by microplate reader assay; format: functional, cell-based
MCF7 [11] = test: Induction of ferroptosis in human MCF7 cells assessed as cell death at 2 uM pretreated with antioxidant vitamin E followed by compound treatment by MTT assay; format: functional, cell-based
4T1 [12] = test: Induction of M2-TAM polarization in mouse 4T1 cells assessed as decrease in Arg1 protein level at 2 uM after 48 hrs by Western blot analysis relative to control; format: functional
MCF7 [13] = test: Induction of apoptosis in human MCF7 cells assessed as late apoptotic cells at 2 uM after 24 hrs by Annexin V-FITC/propidium iodide staining-based flow cytometric analysis (reference value: 2.97 %); format: functional
[14] = Selectivity index, ratio IC50 for cytotoxicity against human LO2 cells assessed as reduction in cell viability after 72 hrs by MTT assay to IC50 for anticancer activity against mouse 4T1 cells assessed as reduction in cell viability after 72 hrs by MTT assay
MCF7 [15] = test: Inhibition of glycolysis in human MCF7 cells assessed as reduction in extracellular lactate level at 2 uM after 6 hrs by microplate reader assay; format: functional, cell-based
4T1 [16] = test: Reversal of immunosuppression against mouse 4T1 cells implanted in BALB/c mouse assessed as growth inhibition of distal tumor at 2 mg/kg administered intratumorally every 2 days for 2 weeks measured after 14 days; format: functional, organism-based
MCF7 [17] = test: Induction of apoptosis in human MCF7 cells assessed as viable cells at 2 uM after 24 hrs by Annexin V-FITC/propidium iodide staining-based flow cytometric analysis (reference value: 93.39 %); format: functional; details: MCF7, 24 h, read-out: Activity
[18] = Selectivity index, ratio IC50 for cytotoxicity against human HBMEC cells assessed as reduction in cell viability after 72 hrs by MTT assay to IC50 for anticancer activity against human A375 cells assessed as reduction in cell viability after 72 hrs by MTT assay
HCT-116 = test: Synergistic anticancer activity against human HCT116 cells expressing assessed as combination index after 72 hrs by MTT assay; format: functional
MCF7 [19] = test: Induction of metabolic reversal from aerobic glycolysis to oxidative phosphorylation in human MCF7 cells assessed as decrease in oxygen consumption rate at 2 uM pretreated for 6 hrs followed by oligomycin A addition after 25 mins followed by subsequent addition of FCCP after 50 mins followed by antimycin/rotenone addition after 80 mins by seahorse XF24 extracellular flux analyzer assay; format: functional, cell-based
MCF7 [20] = test: Anticancer activity against human MCF7 cells overexpressing PDK assessed as reduction in cell viability after 72 hrs by MTT assay; format: functional, cell-based; details: MCF7, 72 h
MCF7 [21] = test: Induction of mitochondrial dysfunction in human MCF7 cells assessed as cell population with intact mitochondrial membrane potential at 2 uM after 24 hrs by JC1 staining-based FACScalibur flow cytometry analysis (reference value: 97%); format: functional
[22] = Toxicity in BALB/c nude mouse xenografted with human MCF7 cells assessed as effect on blood urea nitrogen at 2 mg/kg, iv administered every 2 days for 2 weeks measured after 14 days; format: organism-based; details: in vivo, 336 h
MCF7 [23] = test: Inhibition of glycolysis in human MCF7 cells assessed as reduction in intracellular lactate level at 2 uM after 6 hrs by microplate reader assay; format: functional, cell-based
Mus musculus [24] = test: Modulation of tumor immunosuppressive activity in BALB/c mouse xenografted with mouse 4T1 cells assessed as decrease in IL10 expression in tumor administered intratumorally every other day for 14 days measured at 2 days post-last dose by ELISA; format: functional, organism-based
[25] = Stability of compound in plasma (unknown origin) 37 degree C measured after 2 hrs by HPLC analysis; format: ADME, cell-free
4T1 [26] = test: Inhibition of glycolysis in mouse 4T1 cells expressing PDK assessed as reduction in extracellular lactate level at 2 uM after 6 hrs by microplate reader assay; format: functional, cell-based
[27] = Selectivity index, ratio IC50 for cytotoxicity against human HBMEC cells assessed as reduction in cell viability after 72 hrs by MTT assay to IC50 for anticancer activity against human MCF7 cells assessed as reduction in cell viability after 72 hrs by MTT assay
4T1 [28] = test: Reversal of immunosuppression against mouse 4T1 cells implanted in BALB/c mouse assessed as reduction in tumor volume at 2 mg/kg administered intratumorally every 2 days for 2 weeks measured after 14 days; format: functional
4T1 [29] = test: Anticancer activity against mouse 4T1 cells expressing PDK assessed as reduction in cell viability after 72 hrs by MTT assay; format: functional, cell-based; details: 4T1, 72 h
Mus musculus [30] = test: Modulation of tumor immunosuppressive activity in BALB/c mouse xenografted with mouse 4T1 cells assessed as increase in IFNgamma expression in serum administered intratumorally every other day for 14 days measured at 2 days post-last dose by ELISA; format: functional, organism-based
[31] = Selectivity index, ratio IC50 for cytotoxicity against human LO2 cells assessed as reduction in cell viability after 72 hrs by MTT assay to IC50 for anticancer activity against human MCF7 cells assessed as reduction in cell viability after 72 hrs by MTT assay; format: toxicity, cell-based; details: LO2 cells versus MCF7 cells, read-out: Ratio IC50
[32] = Cytotoxicity against human HBMEC cells assessed as combination index after 72 hrs by MTT assay; format: cell-based

CC1(C)CC[C@]2(C(=O)O)CC[C@]3(C)C(=CC[C@@H]4[C@@]5(C)CC[C@H](O[C@@H]6O[C@H](CO[C@@H]7OC[C@H](O)[C@H](O)[C@H]7O)[C@@H](O)[C@H](O)[C@H]6NC(=O)C(Cl)Cl)C(C)(C)[C@@H]5CC[C@]43C)[C@@H]2C1
Activity (MCF7 [1]): inactive | Ratio IC50 [2]: 29.16 | fold change (FC) (4T1 [3]): 2.1 | Activity [4]: Non-Toxic | Activity (Mus musculus [5]): Active | Activity (Mus musculus [6]): Active | Activity [7]: Non-Toxic | Activity (MCF7 [8]): 46.39% | Activity [9]: Non-Toxic | inhibition (4T1 [10]): Active | Activity (MCF7 [11]): inactive | fold change (FC) (4T1 [12]): 2.1 | Activity (MCF7 [13]): 22.92% | Ratio IC50 [14]: 40.56 | inhibition (MCF7 [15]): Active | Activity (4T1 [16]): Active | viability at 2 µM (MCF7 [17]): 47% | Ratio IC50 [18]: 10.11 | CI (HCT-116): 0.22 | Activity (MCF7 [19]): Active | IC50 (MCF7 [20]): 430 nM | Activity (MCF7 [21]): 53.38% | Activity [22]: Non-Toxic | inhibition (MCF7 [23]): Active | Activity (Mus musculus [24]): Active | Stability [25]: Stable | inhibition (4T1 [26]): Active | Ratio IC50 [27]: 88.83 | Activity (4T1 [28]): <100 mm3 | IC50 (4T1 [29]): 1310 nM | Activity (Mus musculus [30]): Active | selectivity ratio at 72 h [31]: 124 | CI [32]: 1.41
